A word on the melting point: it is the temperature, or range, at which the solid turns liquid. The IC50 is the concentration at which inhibition is half-maximal.

Data set [1] addresses T1, recombinant Plk1 protein (Homo sapiens, UniProt P53350).
T1 construct: histidine tag (N); made in house; host or cells: SF9 insect cells
As to the kind of experiment: Plk1 kinase activity inhibition assay (33P-ATP, alpha casein substrate, flash plates). Format: biochemical. The following applies: enzymatic assay, 100 nM Li-ATP, 80 minutes at 30° C. The method, boiled down:
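N-terminally His-tagged human Plk1 from SF9 cells (50–100 ng/well) phosphorylated alpha casein (500 ng/well) with 100 nM ATP including 33P-ATP at pH 7.5, with Mg2+ and Mn2+, 80 min at 30 °C. 33P incorporation read on scintillator-coated flash plates; IC50 derived.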

T1 sequence (P53350 whole entry): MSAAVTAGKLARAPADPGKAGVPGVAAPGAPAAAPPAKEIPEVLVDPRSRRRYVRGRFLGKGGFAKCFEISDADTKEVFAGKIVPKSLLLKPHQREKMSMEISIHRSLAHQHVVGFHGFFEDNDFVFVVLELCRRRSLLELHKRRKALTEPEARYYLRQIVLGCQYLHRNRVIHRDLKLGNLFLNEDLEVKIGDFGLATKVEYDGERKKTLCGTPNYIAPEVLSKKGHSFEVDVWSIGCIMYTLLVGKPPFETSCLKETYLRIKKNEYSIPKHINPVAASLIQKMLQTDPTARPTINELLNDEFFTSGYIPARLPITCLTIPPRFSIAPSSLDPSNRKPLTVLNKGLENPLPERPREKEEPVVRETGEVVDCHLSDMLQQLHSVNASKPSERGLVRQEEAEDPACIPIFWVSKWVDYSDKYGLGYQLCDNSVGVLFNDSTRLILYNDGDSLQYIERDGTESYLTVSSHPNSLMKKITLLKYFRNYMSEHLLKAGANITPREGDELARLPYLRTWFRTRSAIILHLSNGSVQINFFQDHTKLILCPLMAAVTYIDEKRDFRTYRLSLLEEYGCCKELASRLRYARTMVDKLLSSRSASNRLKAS

Consider `NC(=O)c1sc(-n2cnc3cnccc32)cc1OCc1ccccc1C(F)(F)F` [Example 2, 5-(1H-Imidazo[4,5-c]pyridin-1-yl)-3-{[2-(trifluoromethyl)benzyl]oxy}thio-phene-2-carboxamide], for which the melting point was 226 to 227 °C (dec.). Also, the half-inhibitory concentration (IC50) in data set [1] lay within 10 to 100 nM.
Taken in the same sequence, the figures for `NC(=O)c1sc(-n2cnc3cnc(Cl)cc32)cc1OCc1ccccc1C(F)(F)F` [Example 1, 5-(6-Chloro-1H-imidazo[4,5-c]pyridin-1-yl)-3-{[2-(trifluoromethyl)benzyl]oxy}thiophene-2-carboxamide] were 248 to 249 °C (dec.) and 10 to 100 nM.
Consider `CCC(Oc1cc(-n2cnc3cnc(CN4CCN(CCOC)CC4)cc32)sc1C(N)=O)c1ccccc1Cl` (stereo not drawn) [Example 139, 3-{[1-(2-chlorophenyl)propyl]oxy}-5-(6-{[4-(2-methoxyethyl)piperazin-1-yl]methyl}-1H-imidazo[4,5-c]pyridin-1-yl)thiophene-2-carboxamide], for which the 50% inhibitory concentration (IC50) in data set [1] lay within 10 to 100 nM.
The same measure, in the same setting: with `C[C@@H](Oc1cc(-n2cnc3cnc(CN4CCN(c5cnccn5)CC4)cc32)sc1C(N)=O)c1ccccc1C(F)(F)F` [Example 84, 5-{6-[(4-pyrazin-2-ylpiperazin-1-yl)methyl]-1H-imidazo[4,5-c]pyridin-1-yl}-3-{(1R)-1-[2-(trifluoromethyl)phenyl]ethoxy}thiophene-2-carboxamide] the figure was 10 to 100 nM.
On the same count and under the same terms, with `C[C@@H](Oc1cc(-n2cnc3cnc(CO)cc32)sc1C(N)=O)c1ccccc1F` [Example 55, 3-[(1R)-1-(2-fluorophenyl)ethoxy]-5-[6-(hydroxymethyl)-1H-imidazo[4,5-c]pyridin-1-yl]thiophene-2-carboxamide] the figure was under 10 nM; with `CCC(Oc1cc(-n2cnc3cnc(CN4CCN(c5ccncc5)CC4)cc32)sc1C(N)=O)c1ccccc1Cl` (stereo not drawn) [Example 143, 3-{[1-(2-chlorophenyl)propyl]oxy}-5-{6-[(4-pyridin-4-ylpiperazin-1-yl)methyl]-1H-imidazo[4,5-c]pyridin-1-yl}thiophene-2-carboxamide], 10 to 100 nM.
Same read-out and setting: with `C[C@@H](Oc1cc(-n2cnc3cnc(CN4CCC(N(C)C)CC4)cc32)sc1C(N)=O)c1ccccc1C(F)(F)F` [Example 65, 5-(6-{[4-(dimethylamino)piperidin-1-yl]methyl}-1H-imidazo[4,5-c]pyridin-1-yl)-3-{(1R)-1-[2-(trifluoromethyl)phenyl]ethoxy}thiophene-2-carboxamide] the figure was under 10 nM.

These data come from patent US8273890B2 (4SC AG, priority 2007, dated 2012).
